Data from US20030130180A1, “Utilization of an aminopeptidase inhibitor” (priority 2000, published 2003).

Test system: Karpas cells
Assay: Detection of surface protein combinations of the protein network on untreated (V1) and actinonin-treated (V2) Karpas cells
Assay type: cell-based
Details: for V2 no. of cells: actinonin-treated Karpas cells
From the text: Principally, detecting of the surface protein combinations may comprise procedural steps of an automated method for determining molecular classes, molecular groups or molecular parts in a solid or liquid object according to DE 197 09 348 C. In these steps, surface proteins may be examined and measured in one and the same object, i.e. in a sample of immune cells and/or tumor cells for example, by sequentially applying reagent solutions Yn (n=1,2,3, . . . N) by means of an automated apparatus, said procedural steps being: I. taking a first reagent solution Y1 from a vessel containing the reagent solution, II. applying said reagent solution Y1 to the object which is on an object slide, III. allowing the reagent solution to react for an automatically set period of time, IV. recording at least one individual labeling pattern of the object previously labeled with said first reagent solution Y1, V. repeating steps I-IV by applying said first reagent solution Y1 or a second reagent solution Y2 or a mixture of said first and second reagent solutions, and VI. repeating steps I to V with further reagent solutions Yn (n=2,3, . . . N) or a mixture thereof and whereby the labeling distribution patterns obtained in each cycle of the method are turned into a complex molecular combination pattern of the object to be examined by computer-aided image overlay. From this combination pattern, information may be gained on the presence of the above mentioned proteins, thus also allowing detection of the surface protein combinations, if the reagent solutions used contain labeled substances directed against the proteins in question. In numerous examinations, it was possible to identify the 30 cell surface proteins already listed above which belong to a specific protein network controlling the early polarization stages of tumor cells and immune cells. In a further examination, surface protein combinations of this protein network of Karpas cells were detected, both in untreated form and after treatment with the aminopeptidase inhibitor actinonin. For this purpose, two groups V1 and V2 of Karpas cells were formed, with the cells of group Vl remaining untreated, while the cells of group V2 were treated with actinonin. Table 2 lists those surface protein combinations which are present both in the actinonin-treated cells and in the untreated cells. However, this table and the further tables 3 and 4 only give examples of 18 of the 30 proteins, with the detected proteins being designated 1 and the non-detected proteins being designated 0. The proteins are continuously numbered 1 to 18, with the nomenclature being notable from table 1. [table] The cell numbers stated in tables 2 to 4 refer to each 1,000 cells examined in groups V1 and V2. Table 3 lists the surface protein combinations which only occur in the untreated Karpas cells and are never found in the actinonin-treated Karpas cells. The number of protein combinations listed in this table 3 amounts to 131. Finally, table 4 exclusively lists those surface protein combinations which occur exclusively in the actinonin-treated Karpas cells. It may be gathered from tables 2 to 4 that, if one examines merely 18 proteins of the 30 proteins, a total of 394 different surface protein combinations will occur, with a total of 334 different combinations occurring in the untreated cells and a total of 263 different combinations being detected in the treated cells.

Compound: CCCCC[C@H](CC(=O)NO)C(=O)N[C@H](C(=O)N1CCC[C@H]1CO)C(C)C [actinonin]
- V2 No. of cells In 1/1000 (actinonin-treated Karpas cells (V2), surface protein combination No. 118, binary code 000100010100000000): 0.0 1/1000
- V2 No. of cells In 1/1000 (actinonin-treated Karpas cells (V2), surface protein combination No. 119, binary code 000100010001011000): 0.0 1/1000
- V2 No. of cells In 1/1000 (actinonin-treated Karpas cells (V2), surface protein combination No. 120, binary code 000100001001001000): 0.0 1/1000
- V2 No. of cells In 1/1000 (actinonin-treated Karpas cells (V2), surface protein combination No. 121, binary code 000100000101001000): 0.0 1/1000
- V2 No. of cells In 1/1000 (actinonin-treated Karpas cells (V2), surface protein combination No. 122, binary code 000100000101000000): 0.0 1/1000
- V2 No. of cells In 1/1000 (actinonin-treated Karpas cells (V2), surface protein combination No. 123, binary code 000100000011000000): 0.0 1/1000
- V2 No. of cells In 1/1000 (actinonin-treated Karpas cells (V2), surface protein combination No. 124, binary code 000000011101011000): 0.0 1/1000
- V2 No. of cells In 1/1000 (actinonin-treated Karpas cells (V2), surface protein combination No. 125, binary code 000000011000001000): 0.0 1/1000
- V2 No. of cells In 1/1000 (actinonin-treated Karpas cells (V2), surface protein combination No. 126, binary code 000000010100000100): 0.0 1/1000
- V2 No. of cells In 1/1000 (actinonin-treated Karpas cells (V2), surface protein combination No. 127, binary code 000000010000011000): 0.0 1/1000
- V2 No. of cells In 1/1000 (actinonin-treated Karpas cells (V2), surface protein combination No. 128, binary code 000000010000000100): 0.0 1/1000
- V2 No. of cells In 1/1000 (actinonin-treated Karpas cells (V2), surface protein combination No. 129, binary code 000000001011000000): 0.0 1/1000
- V2 No. of cells In 1/1000 (actinonin-treated Karpas cells (V2), surface protein combination No. 130, binary code 000000000001001100): 0.0 1/1000
- V2 No. of cells In 1/1000 (actinonin-treated Karpas cells (V2), surface protein combination No. 131, binary code 000000000001000100): 0.0 1/1000
- V2 no. of cells In 1/1OOO, total (actinonin-treated Karpas cells (V2), total over all 203 protein combinations of Table 2): 990.9 1/1OOO
- V2 No. of cells In 1/1000, total (actinonin-treated Karpas cells (V2), total over the 131 surface protein combinations of Table 3): 0 1/1000
- V2 no. of cells (protein code No. 1, proteins 1-18 binary 000000000000000000): 153.2 1/1OOO
- V2 no. of cells (protein code No. 2, proteins 1-18 binary 001000010101001000): 91.9 1/1OOO
- V2 no. of cells (protein code No. 3, proteins 1-18 binary 001000010001000000): 57.6 1/1OOO
- V2 no. of cells (protein code No. 4, proteins 1-18 binary 000000010001000000): 62.2 1/1OOO
- V2 no. of cells (protein code No. 5, proteins 1-18 binary 001000010001001000): 37.9 1/1OOO
- V2 no. of cells (protein code No. 6, proteins 1-18 binary 001000010101000000): 44.3 1/1OOO
- V2 no. of cells (protein code No. 7, proteins 1-18 binary 001100010101001000): 37.6 1/1OOO
- V2 no. of cells (protein code No. 8, proteins 1-18 binary 000000010000000000): 41.8 1/1OOO
- V2 no. of cells (protein code No. 9, proteins 1-18 binary 001000010111001000): 31.4 1/1OOO
- V2 no. of cells (protein code No. 10, proteins 1-18 binary 001100010111011000): 29.7 1/1OOO
- V2 no. of cells (protein code No. 11, proteins 1-18 binary 000000000001000000): 29.3 1/1OOO
- V2 no. of cells (protein code No. 12, proteins 1-18 binary 001100010111001000): 24.2 1/1OOO
- V2 no. of cells (protein code No. 13, proteins 1-18 binary 001000010011001000): 15.4 1/1OOO
- V2 no. of cells (protein code No. 14, proteins 1-18 binary 000000010101000000): 22.3 1/1OOO
- V2 no. of cells (protein code No. 15, proteins 1-18 binary 101100010111011000): 17.3 1/1OOO
- V2 no. of cells (protein code No. 16, proteins 1-18 binary 001000010111011000): 15.0 1/1OOO
- V2 no. of cells (protein code No. 17, proteins 1-18 binary 001000010101011000): 15.5 1/1OOO
- V2 no. of cells (protein code No. 18, proteins 1-18 binary 001100010101011000): 9.7 1/1OOO
- V2 no. of cells (protein code No. 19, proteins 1-18 binary 000000010101001000): 13.4 1/1OOO
- V2 no. of cells (protein code No. 20, proteins 1-18 binary 000000000100000000): 14.5 1/1OOO
- V2 no. of cells (protein code No. 21, proteins 1-18 binary 001100010001001000): 6.3 1/1OOO
- V2 no. of cells (protein code No. 22, proteins 1-18 binary 001000010011000000): 6.7 1/1OOO
- V2 no. of cells (protein code No. 23 (second line so numbered), proteins 1-18 binary 000000000101000000): 11.0 1/1OOO
- V2 no. of cells (protein code No. 23, proteins 1-18 binary 001000000001000000): 7.4 1/1OOO
- V2 no. of cells (protein code No. 24, proteins 1-18 binary 001000010000000000): 5.7 1/1OOO
- V2 no. of cells (protein code No. 25, proteins 1-18 binary 000000000000001000): 7.3 1/1OOO
- V2 no. of cells (protein code No. 27, proteins 1-18 binary 010000001100000000): 7.5 1/1OOO
- V2 no. of cells (protein code No. 28, proteins 1-18 binary 000000010100000000): 8.9 1/1OOO
- V2 no. of cells (protein code No. 29, proteins 1-18 binary 000000010001001000): 7.0 1/1OOO
- V2 no. of cells (protein code No. 30, proteins 1-18 binary 001100010011001000): 4.0 1/1OOO
- V2 no. of cells (protein code No. 31, proteins 1-18 binary 101000010111011000): 2.8 1/1OOO
- V2 no. of cells (protein code No. 32, proteins 1-18 binary 000000001000000000): 6.1 1/1OOO
- V2 no. of cells (protein code No. 33, proteins 1-18 binary 001000010111000000): 5.3 1/1OOO
- V2 no. of cells (protein code No. 34, proteins 1-18 binary 001000010011011000): 3.2 1/1OOO
- V2 no. of cells (protein code No. 35, proteins 1-18 binary 001000010001011000): 4.8 1/1OOO
- V2 no. of cells (protein code No. 37, proteins 1-18 binary 010000001100001000): 3.9 1/1OOO
- V2 no. of cells (protein code No. 38 (first line so numbered), proteins 1-18 binary 000000001100000000): 5.4 1/1OOO
- V2 no. of cells (protein code No. 38 (second line so numbered), proteins 1-18 binary 001000011101001000): 4.3 1/1OOO
- V2 no. of cells (protein code No. 39, proteins 1-18 binary 000000010011000000): 2.5 1/1OOO
- V2 no. of cells (protein code No. 40, proteins 1-18 binary 001000000101000000): 4.7 1/1OOO
- V2 no. of cells (protein code No. 41, proteins 1-18 binary 001100010011011000): 4.0 1/1OOO
- V2 no. of cells (protein code No. 42, proteins 1-18 binary 001100010101000000): 0.8 1/1OOO
- V2 no. of cells (protein code No. 43, proteins 1-18 binary 001000000000000000): 2.8 1/1OOO
- V2 no. of cells (protein code No. 44, proteins 1-18 binary 001000011101000000): 3.7 1/1OOO
- V2 no. of cells (protein code No. 45, proteins 1-18 binary 001100010001000000): 0.6 1/1OOO
- V2 no. of cells (protein code No. 46, proteins 1-18 binary 001000011001000000): 2.5 1/1OOO
- V2 no. of cells (protein code No. 47, proteins 1-18 binary 010000001100001100): 2.2 1/1OOO
- V2 no. of cells (protein code No. 48, proteins 1-18 binary 101100010101011000): 2.2 1/1OOO
- V2 no. of cells (protein code No. 49, proteins 1-18 binary 001000010100000000): 2.7 1/1OOO
- V2 no. of cells (protein code No. 50, proteins 1-18 binary 011000011101001000): 2.4 1/1OOO
- V2 no. of cells (protein code No. 51, proteins 1-18 binary 001000011111001000): 2.0 1/1OOO
- V2 no. of cells (protein code No. 52, proteins 1-18 binary 001100010001011000): 1.0 1/1OOO
- V2 no. of cells (protein code No. 53, proteins 1-18 binary 001000010000001000): 1.0 1/1OOO
